Here are results for twelve compounds from US11639352B2, “Benzothiazole compounds for the treatment of autoimmune diseases” (Hoffmann-La Roche Inc., priority 2018, dated 2023).

Structures are written as SMILES.

For the experiment, the target named is T1, human TLR9 (Homo sapiens, UniProt Q9NR96).
T1 sequence (Q9NR96 26-1032): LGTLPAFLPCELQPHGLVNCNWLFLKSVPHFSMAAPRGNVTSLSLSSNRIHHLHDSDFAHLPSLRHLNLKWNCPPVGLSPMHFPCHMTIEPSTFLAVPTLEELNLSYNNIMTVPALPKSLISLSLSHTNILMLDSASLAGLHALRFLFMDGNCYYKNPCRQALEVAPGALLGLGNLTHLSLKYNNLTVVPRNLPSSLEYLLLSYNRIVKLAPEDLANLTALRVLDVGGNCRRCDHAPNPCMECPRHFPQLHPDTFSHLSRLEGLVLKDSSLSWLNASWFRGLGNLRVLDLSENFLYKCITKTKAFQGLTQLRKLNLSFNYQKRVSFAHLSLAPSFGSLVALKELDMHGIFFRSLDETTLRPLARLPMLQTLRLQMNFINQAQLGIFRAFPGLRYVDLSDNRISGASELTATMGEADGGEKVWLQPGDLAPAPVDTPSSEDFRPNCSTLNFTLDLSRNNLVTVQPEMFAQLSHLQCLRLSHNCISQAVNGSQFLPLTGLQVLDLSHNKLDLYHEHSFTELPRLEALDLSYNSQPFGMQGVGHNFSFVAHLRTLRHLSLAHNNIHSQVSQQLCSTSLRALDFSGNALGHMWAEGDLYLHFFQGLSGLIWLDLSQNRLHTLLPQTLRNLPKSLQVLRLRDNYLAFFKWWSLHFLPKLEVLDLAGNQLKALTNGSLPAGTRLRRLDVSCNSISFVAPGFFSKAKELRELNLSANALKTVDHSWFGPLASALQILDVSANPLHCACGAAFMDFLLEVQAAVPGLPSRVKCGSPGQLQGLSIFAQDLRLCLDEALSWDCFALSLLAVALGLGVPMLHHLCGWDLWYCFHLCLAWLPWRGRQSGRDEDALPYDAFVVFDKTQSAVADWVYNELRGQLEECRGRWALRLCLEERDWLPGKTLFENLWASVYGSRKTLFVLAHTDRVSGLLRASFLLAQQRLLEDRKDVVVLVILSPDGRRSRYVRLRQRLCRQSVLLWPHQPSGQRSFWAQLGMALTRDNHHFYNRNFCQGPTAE
Briefly: HEK293-Blue-hTLR-9 cells assay (SEAP reporter, ODN2006 stimulation). The class given is cell-based. To be noted: HEK293-Blue-hTLR9 cells, ODN2006 ligand, 20 hrs incubation, antagonist. The method, then: The following tests were carried out in order to determine the activity of the compounds of formula (I) in HEK293-Blue-hTLR-7/8/9 cells assay.
HEK293-Blue-hTLR-9 Cells Assay:
A stable HEK293-Blue-hTLR-9 cell line was purchased from InvivoGen (Cat. #: hkb-htlr9, San Diego, Calif., USA). These cells were originally designed for studying the stimulation of human TLR9 by monitoring the activation of NF-κB. A SEAP (secreted embryonic alkaline phosphatase) reporter gene was placed under the control of the IFN-β minimal promoter fused to five NF-κB and AP-1-binding sites. The SEAP was induced by activating NF-κB and AP-1 via stimulating HEK-Blue hTLR9 cells with TLR9 ligands. Therefore the reporter expression was declined by TLR9 antagonist under the stimulation of a ligand, such as ODN2006 (Cat. #: tlrl-2006-1, Invivogen, San Diego, Calif., USA), for incubation of 20 hrs. The cell culture supernatant SEAP reporter activity was determined using QUANTI-Blue™ kit (Cat. #: rep-qb1, Invivogen, San Diego, Calif., USA) at a wavelength of 640 nm, a detection medium that turns purple or blue in the presence of alkaline phosphatase.
HEK293-Blue-hTLR9 cells were incubated at a density of […] cells/mL in a volume of 170 μL in a 96-well plate in Dulbecco's Modified Eagle's medium (DMEM) containing 4.5 g/L glucose, 50 U/mL penicillin, […], 2 mM L-glutamine, 10% (v/v) heat-inactivated fetal bovine serum with addition of 20 μL test compound in a serial dilution in the presence of final DMSO at 1% and 10 μL of 20 uM ODN2006 in above DMEM, perform incubation under 37° C. in a CO2 incubator for 20 hrs. Then 20 μL of the supernatant from each well was incubated with 180 μL Quanti-blue substrate solution at 37° C. for 2 hrs and the absorbance was read at 620˜655 nm using a spectrophotometer. The signalling pathway that TLR9 activation leads to downstream NF-κB activation has been widely accepted, and therefore similar reporter assay was modified for evaluating TLR9 antagonist.

The term IC50 denotes the concentration that inhibits the measured activity by half. Low values mean greater potency, high ones weaker potency. Compound `C[C@@H]1CN(c2ccc(C#N)c3ncsc23)C[C@H](CN2[C@@H]3CC[C@H]2C[C@@H](N)C3)O1` [Example 8, Endo-7-[(2S,6R)-2-[[(1R,5S)-3-amino-8-azabicyclo[3.2.1]octan-8-yl]methyl]-6-methyl-morpholin-4-yl]-1,3-benzothiazole-4-carbonitrile] yielded a 50% inhibitory concentration (IC50) of 0.109 µM. The result for `C[C@@H]1CN(c2ccc(C#N)c3ncsc23)C[C@H](C(=O)NC2CCN(C)CC2)O1` [Example 11, (2R,6R)-4-(4-cyano-1,3-benzothiazol-7-yl)-6-methyl-N-(1-methyl-4-piperidyl)morpholine-2-carboxamide] reads 17.5 µM.

Regarding `C[C@@H]1CN(c2ccc(C#N)c3ncsc23)C[C@H](CN2CCC(N3CCCCC3)CC2)O1` [Example 7, 7-[(2R,6S)-2-methyl-6-[[4-(1-piperidyl)-1-piperidyl]methyl]morpholin-4-yl]-1,3-benzothiazole-4-carbonitrile], the IC50 was found to be 0.118 µM. The value for `C[C@@H]1CN(c2ccc(C#N)c3ncsc23)C[C@H](CN2CCC(N)CC2)O1` [Example 2, 7-[(2S,6R)-2-[(4-amino-1-piperidyl)methyl]-6-methyl-morpholin-4-yl]-1,3-benzothiazole-4-carbonitrile] was 0.3 µM; that for `C[C@@H]1CN(c2ccc(C#N)c3ncsc23)C[C@H](CN2CCC3(CCNC3)CC2)O1` [Example 6, 7-[(2S,6R)-2-(2,8-diazaspiro[4.5]decan-8-ylmethyl)-6-methyl-morpholin-4-yl]-1,3-benzothiazole-4-carbonitrile] was 0.098 µM. Regarding `C[C@@H]1CN(c2ccc(C#N)c3ncsc23)C[C@H](CN2CCC3(CCCNC3)C2)O1` (stereo partly drawn) [Example 1, 7-[(2S,6R)-2-(2,9-diazaspiro[4.5]decan-2-ylmethyl)-6-methyl-morpholin-4-yl]-1,3-benzothiazole-4-carbonitrile], inhibition was half-maximal at 0.087 µM (IC50). The IC50 values of the last two compounds are within 1.5-fold of each other.

In turn, `C[C@@H]1CN(c2ccc(C#N)c3ncsc23)C[C@H](CN2CCC3(CCNCC3)CC2)O1` [Example 5, 7-[(2S,6R)-2-(3,9-diazaspiro[5.5]undecan-3-ylmethyl)-6-methyl-morpholin-4-yl]-1,3-benzothiazole-4-carbonitrile] showed an IC50 of 0.145 µM. This IC50 is about 1.7-fold higher than that of the compound before.

In turn, `C[C@@H]1CN(c2ccc(C#N)c3ncsc23)C[C@H](CN2[C@@H]3CC[C@H]2C[C@H](N)C3)O1` [Example 9, Exo-7-[(2S,6R)-2-[[(1S,5R)-3-amino-8-azabicyclo[3.2.1]octan-8-yl]methyl]-6-methyl-morpholin-4-yl]-1,3-benzothiazole-4-carbonitrile] yielded a half-inhibitory concentration (IC50) of 0.065 µM. The result for `C[C@@H]1CN(c2ccc(C#N)c3ncsc23)C[C@H](C(=O)NCC2CN(C)CCO2)O1` (stereo partly drawn) [Example 12, (2R,6R)-4-(4-cyano-1,3-benzothiazol-7-yl)-6-methyl-N-[(4-methylmorpholin-2-yl)methyl]morpholine-2-carboxamide] reads 36.8 µM; that for `C[C@@H]1CN(c2ccc(C#N)c3ncsc23)C[C@H](CN2CCC3(CCCNC3)CC2)O1` [Example 3, 7-[(2S,6R)-2-(2,9-diazaspiro[5.5]undecan-9-ylmethyl)-6-methyl-morpholin-4-yl]-1,3-benzothiazole-4-carbonitrile], 0.077 µM; that for `C[C@@H]1CN(c2ccc(C#N)c3ncsc23)C[C@H](CN2CCC3(CCCN(C)C3)CC2)O1` [Example 10, 7-[(2R,6S)-2-methyl-6-[(2-methyl-2,9-diazaspiro[5.5]undecan-9-yl)methyl]morpholin-4-yl]-1,3-benzothiazole-4-carbonitrile], 0.077 µM. The result for `C[C@@H]1CN(c2ccc(C#N)c3ncsc23)C[C@H](CN2CC3(CCCNC3)C2)O1` [Example 4, 7-[(2S,6R)-2-(2,8-diazaspiro[3.5]nonan-2-ylmethyl)-6-methyl-morpholin-4-yl]-1,3-benzothiazole-4-carbonitrile] reads 0.101 µM.
